The structures appear in SMILES notation. Values joined by “and” are separate entries in the source; they are usually repeats but may differ in a detail not shown here. Identical values can stand only once.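 Values below derive from 48-hour exposures of cells grown in 96-well plates, with endpoints linearly interpolated between the two concentrations bracketing the appropriate inhibition level. At the GI50, growth is halved. At the TGI there is no net growth.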

Holding throughout (assay): growth of human tumour cells (NCI), 48 h
Test [1] relates to RXF 393 renal.
The subject of test [2] is SF-268 CNS.
Test [3] deals with SF-295 CNS.
Test [4] has as its system UACC-257 melanoma.
The subject of test [5] is EKVX NSCLC.
Test [6] concerns SNB-19 CNS.
For test [7], the system named is HCT-15 colon.
Test [8] deals with T-47D breast.
The subject of test [9] is BT-549 breast.
Test [10] has as its system HCT-116 colon.

Regarding `C=COCCCOc1ccccc1`, the TGI in test [1], in test [2], in test [3], in test [4], in [5] and in test [6] was greater than 100 µM throughout. Further, the TGI in test [7], in test [8], in test [9] and in [10] was greater than 100 µM in each case. Moreover, the GI50 in test [3], in test [4], in test [8] and in test [9] was greater than 100 µM each time.

`O=C(OC(CNc1cc(=O)n(Cc2ccccc2)c(=O)n1Cc1ccccc1)CN1CCCC1)c1ccccc1` (stereo unspecified): the GI50 in [1] is 76.1 µM; in test [2] it was greater than 100 µM; in test [3], greater than 100 µM; in test [4], greater than 100 µM; in [5], greater than 100 µM; in test [6], greater than 100 µM. Moreover, the GI50 is greater than 100 µM in test [7], 18.9 µM in test [8], 0.781 µM in [9] and 56.8 µM in test [10]. The TGI in test [1], in [2], in test [3], in test [4], in [5] and in test [6] was greater than 100 µM throughout. The TGI in [7], in test [8], in test [9] and in test [10] was greater than 100 µM each time.

For the compound `COc1cc(C2CC(c3cccc(Br)c3)=NN2C(C)=O)cc(OC)c1OC` (stereo unspecified), the GI50 was 0.266 µM in test [1]; 0.785 µM in test [2]; 0.238 µM in test [3]; 25.3 µM in [4]; 1.48 µM in test [5]; 0.514 µM in test [6]. Moreover, the GI50 was 0.328 µM in [7], 0.372 µM in [8], 10.2 µM in test [9] and 0.479 µM in test [10]. The TGI in [1] was 0.976 µM; in [2], 83.3 µM; in [3] it was 16.3 µM; in test [4] it was greater than 84.1 µM; in test [5] it was greater than 100 µM; in [6], greater than 100 µM. Also, the TGI in test [7] is 29.5 µM; in test [8], 29.7 µM; in test [9], 40.7 µM; in test [10], greater than 55.9 µM.

As to `O=C(Nc1nc2ccc(C(F)(F)F)cc2s1)c1cc(Cl)ccc1O`, the GI50 in test [1] was 1.76 µM; in test [2], 0.497 µM; in [3] it was 0.831 µM; in test [4] it was 0.646 µM; in test [5], 0.37 µM; in test [6], 0.629 µM. For the same compound, the GI50 was 0.346 µM in [7], 0.303 µM in test [8], 0.89 µM in test [9] and 0.414 µM in test [10]. The TGI was 11.1 µM in test [1]; greater than 100 µM in test [2]; 3.16 µM in [3]; 5.53 µM in test [4]; 39 µM in test [5]; greater than 100 µM in [6]. Moreover, the TGI was determined as 12.9 µM in [7], 2.96 µM in test [8], 7.77 µM in test [9] and 11 µM in test [10].

Turning to `CCn1c(-c2nonc2N)nc2c(C#CC(C)(C)O)nc(OC[C@H](N)c3ccccc3)cc21`, the GI50 in test [1] is 1.28 µM; in [2] it was 4.94 µM; in test [3] it was 2.95 µM; in [4], 5.18 µM; in [5], 10.8 µM; in test [6], 7.3 µM. In addition, the GI50 in test [7] was 2.53 µM; in test [8], 2.88 µM; in test [9], 3.39 µM; in test [10], 3.55 µM. Further, the TGI was 4.73 µM in test [1]; 11.2 µM in test [2]; 7.22 µM in [3]; 9.43 µM in test [4]; 18.1 µM in test [5]; 20.5 µM in [6]. For the same compound, the TGI came out at 6.73 µM in test [7], 7.53 µM in [8], 6.74 µM in [9] and 6.99 µM in test [10].

Consider `O=C(O)CCC(=O)c1ccc[nH]1`, for which the TGI in test [1], in test [2], in [3], in test [4], in [5] and in [6] was greater than 100 µM throughout. Also, the TGI in test [7], in test [8], in test [9] and in test [10] was greater than 100 µM throughout.

Turning to `NC(=O)NC1C(c2ccccc2)=C1c1ccccc1`, the TGI was 14.8 µM in test [1]; 32 µM in test [2]; 54.6 µM in test [3]; 38.4 µM in [4]; 60 µM in test [5]; greater than 100 µM in [6]. Also, the TGI was 32.4 µM in test [7], greater than 100 µM in test [8], 26.7 µM in [9] and 38.7 µM in test [10].

In the case of `CC(C)CCN1c2nc(Nc3cc(F)c(O)c(F)c3)ncc2N(C)C(=O)C1C` (stereo unspecified), the GI50 is 7.94 µM in [1]; 5.81 µM in [2]; 11.3 µM in [3]; 17.1 µM in test [4]; 9.26 µM in test [5]; 6.35 µM in test [6]. In addition, the GI50 in test [7] was 3.5 µM; in test [8], 6.36 µM; in test [9], 5.66 µM; in test [10], 4.37 µM. The TGI in test [1] is 31.4 µM; in [2] it was 56.8 µM; in test [3], greater than 100 µM; in test [4] it was greater than 88.2 µM; in [5], greater than 100 µM; in test [6], greater than 100 µM. The TGI in test [7] is greater than 49.1 µM; in test [8], 25.9 µM; in test [9], greater than 67.7 µM; in [10], 30.1 µM.

Regarding `O/N=C/C1C(OCc2ccccc2)C(OCc2ccccc2)C(OCc2ccccc2)CN1Cc1ccccc1` (stereo unspecified), the TGI is 46.1 µM in test [1]; greater than 100 µM in test [2]; 29.5 µM and > 100 µM in [3]; 72.5 µM and 15.7 µM in test [4]; greater than 100 µM in [5]; greater than 100 µM in test [6]. In addition, the TGI was greater than 100 µM in test [7]; greater than 100 µM in [8]; 37.1 µM in test [9]; 22.6 µM and > 100 µM in test [10]. The GI50 in test [4] is 23.3 µM and 2.45 µM; in test [7] it was 25.7 µM and 9.77 µM.

The values above are taken from PubChem BioAssay (NCI).
